Structures can show the parent of a compound that is named as a salt.

One may read the IC50 as the concentration that gives 50% inhibition.

One assay concerns the target T1, ACC1 from rat liver (Rattus norvegicus, UniProt P11497).
T1 construct: The livers (for ACC1 preparation) or skeletal muscle tissue (for ACC2 preparation) are removed; from tissue; host or cells: liver of male CD rats (fasted, then fed a high sucrose diet)
Briefly: Direct inhibition of ACC1 activity (14C-bicarbonate incorporation). The assay is classed as biochemical. The settings on record: ACC1 from rat liver. The procedure: [1] Preparation of ACC1 and ACC2.
Male CD rats weighing 150-200 g are fasted for 2 days and then fed a high sucrose diet (AIN-76A rodent diet; Cat # D10001, Research Diets Inc., New Brunswick, N.J.), for 3 days at which time they are sacrificed by CO2 asphyxiation. The livers (for ACC1 preparation) or skeletal muscle tissue (for ACC2 preparation) are removed, rinsed in ice-cold phosphate-buffered saline (PBS), and homogenized in 5 volumes of homogenization buffer (50 mM potassium phosphate, pH 7.5, 10 mM EDTA, 10 mM 2-mercaptoethanol, 2 mM benzamidine, 0.2 mM phenylmethylsulfonylfluoride (PMSF), 5 mg/L each leupeptin, aprotinin, and antitrypsin) in a Waring® blender for 1 minute at 4° C. All subsequent operations are carried out at 4° C. The homogenate is made 3% with respect to polyethylene glycol (PEG) by the addition of 50% PEG solution and centrifuged at 20,000×g for 15 minutes. The resulting supernatant is adjusted to 5% PEG with the addition of 50% PEG solution and stirred for 5 minutes. The pellet (contains ACC activity) is collected by centrifugation at 20,000×g for 20 minutes, rinsed with Ice-cold doubly distilled water to remove excess PEG and re-suspended in one-fourth the original homogenate volume with homogenization buffer. Ammonium sulfate (200 g/liter) is slowly added with stirring. After 45 minutes the enzyme is collected by centrifugation for 30 minutes at 20,000×g, re-suspended in 10 ml of 50 mM HEPES, pH7.5, 0.1 mM DTT, 1.0 mM EDTA, and 10% glycerol and desalted on a Sephadex™ G-25 column (2.5 cm-x 50 cm) (Pharmacia, Piscataway N.J. now GE Healthcare) […] equilibrated with the same buffer. The desalted enzyme preparation is stored in aliquots at −70° C. Immediately prior to use, frozen ACC1 or ACC2 aliquots are thawed, diluted to 500 μg/ml in buffer containing 50 mM HEPES, pH7.5, 1.0 mM MgCl2, 10 mM tripotassium citrate, 2.0 mM dithiothreitol (DTT), and 0.75 mg/ml fatty acid-free bovine serum albumin (BSA) and pre-incubated at 37° C. for 30 minutes.
[2] Measurement of ACC inhibition. The procedures for measuring ACC1 inhibition and ACC2 inhibition are identical except for the source of the isozyme. For measurement of ACC activity and assessment of ACC inhibition, test compounds are dissolved in dimethylsulfoxide (DMSO) and 1 μL aliquots are placed in 0.5 ml polypropylene tubes. Control tubes contain 1 μL of DMSO alone. Tubes are incubated at 37° C. in a constant temperature water bath. […] The reaction is then initiated by the addition of 10 μL of preincubated ACC fraction prepared as described above. After 7 minutes the reaction is terminated by the addition of 50 μL of 6N HCl and a 150 μL aliquot of the reaction mixture is transferred to glass scintillation vials and evaporated to dryness at 90° C. for at least 1 hour. The dried vials are then cooled, 0.5 ml of water and 5.5 ml of Ready Safe liquid scintillation fluid (Beckman Coulter Inc., Fullerton, Calif.) are added, and the radioactivity is determined using a liquid scintillation counter. Tubes that received HCl before ACC served as blanks.
In the case of `Cc1cc2c(c(C)c1Cl)C(=O)CC1(CCN(C(=O)c3cc(C)c4[nH]ncc4c3)CC1)O2` [Ex. A18, 6-chloro-5,7-dimethyl-1′-[(7-methyl-1H-indazol-5-yl)carbonyl]spiro[chromene-2,4′-piperidin]-4(3H)-one], the IC50 turned out to be 72 nM. In turn, “5,7-dichloro-1′-(1H-indazol-7-ylcarbonyl)spiro[chromene-2,4′-piperidin]-4(3H)-one [Ex. H15]” had an IC50 of 1480 nM. Same read-out and setting: then `Cc1cc2ccc(C(=O)N3CCC4(CC3)CC(=O)c3cc(C)c(C)cc3O4)cc2[nH]1` [Ex. L3, 6,7-dimethyl-1′-[(2-methyl-1H-indol-6-yl)carbonyl]spiro[chromene-2,4′-piperidin]-4(3H)-one trifluoroacetic acid salt], with 368 nM; and `COc1cc(Cl)cc2c1C(=O)CC1(CCN(C(=O)c3cc(C)c4[nH]ncc4c3)CC1)O2` [Ex. A19, 7-chloro-5-methoxy-1′-[(7-methyl-1H-indazol-5-yl)carbonyl]spiro[chromene-2,4′-piperidin]-4(3H)-one], with 81.5 nM; and `Cc1cc2c(cc1C)C(=O)CC1(CCN(C(=O)c3ccc4nc[nH]c4c3)CC1)O2` [Ex. L33, 1′-(1H-benzimidazol-6-ylcarbonyl)-6,7-dimethylspiro[chromene-2,4′-piperidin]-4(3H)-one], with 99.9 nM. In turn, `COc1ccc2c(c1)OC1(CCN(C(=O)c3cc(Cl)c4[nH]ncc4c3)CC1)CC2=O` [Ex. B7, 1′-[(7-chloro-1H-indazol-5-yl)carbonyl]-7-methoxyspiro[chromene-2,4′-piperidin]-4(3H)-one] showed an IC50 of 166 nM. On the same count and under the same terms, the figure for `Cc1cc2c(cc1C)C(=O)CC1(CCN(C(=O)c3ccc4nc(-c5ccncc5)[nH]c4c3)CC1)O2` [Ex. L36, 6,7-dimethyl-1′-[(2-pyridin-4-yl-1H-benzimidazol-6-yl)carbonyl]spiro[chromene-2,4′-piperidin]-4(3H)-one trifluoroacetic acid salt] is 50.7 nM; for `Cc1cc2c(cc1C)C(=O)CC1(CCN(C(=O)c3ccc4ncccc4c3)CC1)O2` [Ex. L43, 6,7-dimethyl-1′-(quinolin-6-ylcarbonyl)spiro[chromene-2,4′-piperidin]-4(3H)-one trifluoroacetic acid salt] it is 121 nM. The same measure, in the same setting: then `Cc1[nH]c2ccc(C(=O)N3CCC4(CC3)CC(=O)c3cc(Cl)ccc3O4)cc2c1C` [Ex. L12, 6-chloro-1′-[(2,3-dimethyl-1H-indol-5-yl)carbonyl]spiro[chromene-2,4′-piperidin]-4(3H)-one], with < 1000 nM. In turn, `Cc1cc2c(cc1C)C(=O)CC1(CCN(C(=O)c3ccc4[nH]cc(Cl)c4c3)CC1)O2` [Ex. L9, 1′-[(3-chloro-1H-indol-5-yl)carbonyl]-6,7-dimethylspiro[chromene-2,4′-piperidin]-4(3H)-one] came in with an IC50 of 43.8 nM. Same read-out and setting: then `Cn1ccc2ccc(C(=O)N3CCC4(CC3)CC(=O)c3cc(Cl)ccc3O4)cc21` [Ex. L5, 6-chloro-1′-[(1-methyl-1H-indol-6-yl)carbonyl]spiro[chromene-2,4′-piperidin]-4(3H)-one], with < 1000 nM; and `Cc1cc2c(c(C)c1Cl)C(=O)CC1(CCN(C(=O)c3cccc4cn[nH]c34)CC1)O2` [Ex. H8, 6-chloro-1′-(1H-indazol-7-ylcarbonyl)-5,7-dimethylspiro[chromene-2,4′-piperidin]-4(3H)-one], with 590 nM.

The same assay, now with this note: Table of Examples M1-M36.
On to `COc1ccc2c(c1)OC1(CCN(C(=O)c3cccc(-c4cc[nH]n4)c3)CC1)CC2=O` [Ex. M25, 7-methoxy-1′-[3-(1H-pyrazol-3-yl)benzoyl]spiro[chromene-2,4′-piperidin]-4(3H)-one], for which half-maximal inhibition (IC50) required 481 nM.

For `O=C1CC2(CCN(C(=O)c3cccc(-c4cc[nH]n4)c3)CC2)Oc2cc(Cl)ccc21` [Ex. M15, 7-chloro-1′-[3-(1H-pyrazol-3-yl)benzoyl]spiro[chromene-2,4′-piperidin]-4(3H)-one], the IC50 was determined as 233 nM.
